For experiment [1], the system named is SW480. Put plainly: Cytotoxicity against Wnt-dependent human SW480 cells assessed as cell viability after 24 hrs by fluorescence assay. To be noted: SW480, 24 h. It is filed as functional, cell-based.
A further experiment has as its system RKO. As to the kind of experiment: Cytotoxicity against Wnt-independent human RKO cells assessed as cell viability after 24 hrs by fluorescence assay. The experiment is classed as cell-based.
The subject of the next experiment is HCT-116. Put plainly: Cytotoxicity against Wnt-dependent human HCT116 cells assessed as cell viability after 24 hrs by fluorescence assay. To be noted: HCT-116, 24 h. It is filed as functional, cell-based.
Another experiment has as its system HEK293. Put plainly: Cytotoxicity against HEK293 cells assessed as cell viability after 24 hrs by fluorescence assay. The experiment is classed as cell-based. To be noted: Homo sapiens, HEK293, 24 h.
For the next experiment, the system named is STF/293. Put plainly: (§1) Inhibition of Wnt/beta-catenin in human STF/293 cells assessed as inhibition of TCF/beta catenin transcription after 24 hrs by SuperTOPFlash reporter gene assay. It is filed as cell-based.
Experiment [2] can be described thus: as §1. The experiment is classed as cell-based. Conditions: STF/293, 24 h.
Experiment [3] deals with HEK-293T. Put plainly: Inhibition of Wnt/beta-catenin in HEK293T cells assessed as inhibition of TCF/beta catenin transcription at 5 to 20 uM after 24 hrs by SuperFOPFlash reporter gene assay. It is filed as cell-based. To be noted: Homo sapiens. A general note: In a reporter assay the amount or activity of a reporter protein is the signal.
A short description of experiment [4]: Cytotoxicity against Wnt-dependent human DLD1 cells assessed as cell viability after 24 hrs by fluorescence assay. It is filed as functional, cell-based. Conditions: DLD-1, 24 h.
The subject of experiment [5] is HEK-293T. As to the kind of experiment: Cytotoxicity against HEK293T cells assessed as cell viability after 24 hrs by fluorescence assay. It is filed as cell-based. To be noted: Homo sapiens.
For experiment [6], the system named is SW480. Put plainly: Inhibition of Wnt/beta-catenin in human SW480 cells assessed as decrease in beta-catenin mRNA level at 40 uM by real time RT-PCR analysis. The experiment is classed as cell-based. Background: Real-time PCR tracks product formation cycle by cycle.
For experiment [7], the system named is SW480. Put plainly: Inhibition of Wnt/beta-catenin in human SW480 cells assessed as decrease in nuclear beta-catenin level at 10 to 40 uM after 24 hrs by Western blot analysis. It is filed as cell-based. (A western blot detects proteins with antibodies after separation by electrophoresis.)
Experiment [8] has as its system SW480. Put plainly: Inhibition of Wnt/beta-catenin in human SW480 cells assessed as beta-catenin phosphorylation at Ser45 at 10 to 40 uM after 24 hrs by Western blot analysis. It is filed as cell-based.
Experiment [9] concerns SW480. Put plainly: Inhibition of Wnt/beta-catenin in proteasome inhibitor MG132 pretreated human SW480 cells assessed as decrease in beta-catenin level at 40 uM co-treated with MG132 for 12 hrs by Western blot analysis. The experiment is classed as cell-based.
The subject of experiment [10] is SW480. As to the kind of experiment: Inhibition of Wnt/beta-catenin in human SW480 cells assessed as beta-catenin phosphorylation at Ser33/Ser37/Thr40 at 10 to 40 uM after 24 hrs by Western blot analysis. It is filed as cell-based.
In experiment [11] the test system is SW480. As to the kind of experiment: Effect on CK1alpha expression in human SW480 cells at 10 to 40 uM after 24 hrs by Western blot analysis. It is filed as functional, cell-based.
The test system of experiment [12] is SW480. Put plainly: Inhibition of Wnt/beta-catenin in human SW480 cells assessed as decrease in cytosolic beta-catenin level at 10 to 40 uM after 24 hrs by Western blot analysis. The experiment is classed as cell-based.
Experiment [13] deals with SW480. As to the kind of experiment: Effect on GSK3beta expression in human SW480 cells at 10 to 40 uM after 24 hrs by Western blot analysis. It is filed as functional, cell-based.
Experiment [14] relates to HEK-293T. Put plainly: Inhibition of Wnt/beta-catenin in HEK293T cells assessed as inhibition of TCF/beta catenin transcription at 10 to 40 uM after 24 hrs by SuperFOPFlash reporter gene assay. It is filed as cell-based. Conditions: Homo sapiens.

The source made the active and inactive calls. The calls are words filed in the database; no cut-off is given here.

One may read the IC50 as the point on the concentration scale where inhibition reaches its midpoint.

With `CC[C@H]1C[C@@H]2CN3CC[C@]4(O)C(=Nc5ccccc54)[C@](C(=O)OC)(C2)[C@H]13` [CORONARIDINE HYDROXYINDOLENINE], the 50% inhibitory concentration (IC50) in the experiment with SW480 [1] was greater than 40 µM; in the experiment on RKO it was greater than 40 µM; with HCT-116, greater than 40 µM; in the experiment on HEK293 it was greater than 40 µM; in experiment [2] it was 7.3 µM; in experiment [4], greater than 40 µM. Also, the 50% inhibitory concentration (IC50) in the experiment on HEK-293T [5] is greater than 40 µM. The inhibition result in the experiment on STF/293 is “Dose-dependent effect”. For the same compound, in the experiment with HEK-293T [3], the inhibition entry is “Active”.

As to `CC[C@H]1C[C@@H]2CN3CCc4c([nH]c5ccccc45)[C@](C(=O)OC)(C2)[C@H]13` [CORONARIDINE], the inhibition result in the experiment on SW480 [6], in the experiment on SW480 [7], with HEK-293T [3], with SW480 [9] and in the experiment with SW480 [12] was “Active” throughout. Also, the IC50 in the experiment on SW480 [1] was 10.4 µM; in the experiment on RKO it was greater than 40 µM; in the experiment on HCT-116, 11.6 µM; with HEK293, 31.7 µM; in experiment [2], 5.8 µM; in experiment [4] it was 24.4 µM. Besides, the IC50 with HEK-293T [5] was greater than 40 µM. The inhibition entry in the experiment with SW480 [8] and with SW480 [10] was “inactive” each time. Also, the inhibition result in the experiment with STF/293 was “Dose-dependent effect”. The result with SW480 [11] and in the experiment with SW480 [13] was inactive.

Regarding `CC[C@H]1C[C@@H]2CN3CCc4c([nH]c5cc(OC)ccc45)[C@](C(=O)OC)(C2)[C@H]13` [ISOVOACANGINE], the IC50 in the experiment with SW480 [1] was 11.2 µM; with RKO, greater than 40 µM; in the experiment on HCT-116, 24.4 µM; with HEK293 it was 35.6 µM; in experiment [2], 6 µM; in [4] it was greater than 40 µM. In the experiment with HEK-293T [5], the IC50 was greater than 40 µM. Also, the inhibition entry with STF/293 is “Dose-dependent effect”. For the same compound, in the experiment on HEK-293T [3], the inhibition entry is “Active”.

For the compound `CC[C@H]1C[C@@H]2CN3CCc4c([nH]c5ccc(OC)cc45)[C@](C(=O)OC)(C2)[C@H]13` [VOACANGINE], the IC50 with SW480 [1] is greater than 40 µM; in the experiment on RKO, greater than 40 µM; in the experiment with HCT-116, greater than 40 µM; with HEK293, greater than 40 µM; in [2], 11.5 µM; in [4], greater than 40 µM. Also, the half-inhibitory concentration (IC50) in the experiment on HEK-293T [5] was greater than 40 µM. For the same compound, the inhibition entry in the experiment with HEK-293T [14] is “inactive”. In the experiment on STF/293, the inhibition result was “Dose-dependent effect”.

The values above are taken from ChEMBL document CHEMBL3608238, “Coronaridine, an iboga type alkaloid from Tabernaemontana divaricata, inhibits the Wnt signaling pathway by decreasing β-catenin mRNA expression” (Bioorg Med Chem Lett, 2015).
